ChEMBL document CHEMBL1667808, “Substituted imidazole derivatives as novel cardiovascular agents” (Bioorg Med Chem Lett, 2011)
Active and inactive are the calls of the source. The rule behind the calls is not given here.

What was measured:
Felis catus [1] = test: Antihypertensive activity in cat assessed as change in blood pressure at 2.5 mg/kg measured after 5 mins; assay type: functional
Felis catus [2] = test: Hypotensive activity in cat assessed as decrease carotid occlusion response at 2.5 mg/kg; assay type: functional, organism-based; set-up: dose 2.5 mg/kg
Felis catus [3] = test: Antihypertensive activity in cat assessed as change in blood pressure at 2.5 mg/kg measured within 5 mins; assay type: functional
Felis catus [4] = test: Hypotensive activity in cat assessed as decrease norepinephrine response at 2.5 mg/kg; assay type: functional, organism-based; set-up: dose 2.5 mg/kg
Felis catus [5] = test: Antihypertensive activity in cat assessed as change in heart rate at 2.5 mg/kg measured after 5 mins; assay type: functional
Felis catus [6] = test: Antihypertensive activity in cat assessed as change in heart rate at 2.5 mg/kg measured within 5 mins; assay type: functional

SMILES | Activity (Felis catus [1]) [mmHg] | Activity (Felis catus [2]) | Activity (Felis catus [3]) [mmHg] | Activity (Felis catus [4]) | Activity (Felis catus [5]) | Activity (Felis catus [6]) [bpm]
COc1ccc(-c2nnc(Cn3c(-c4ccc(OC)cc4)nc(-c4ccccc4)c3-c3ccccc3)o2)cc1 | 10 | Active | -10 | Active |  | 
COc1ccc(/C=N/NC(=O)Cn2c(-c3ccccc3)nc(-c3ccccc3)c2-c2ccccc2)cc1 |  | inactive | -15 | inactive | -11 bpm | -8
CN(C)c1ccc(-c2nnc(Cn3c(-c4ccccc4O)nc(-c4ccccc4)c3-c3ccccc3)o2)cc1 | 5 | inactive | -15 | inactive | -5 bpm | -5
COc1cc(-c2nc(-c3ccccc3)c(-c3ccccc3)n2CC(=O)NN)ccc1O | -20 | Active | -30 | inactive | inactive | 
CN(C)c1ccc(/C=N/NC(=O)Cn2c(-c3ccccc3O)nc(-c3ccccc3)c2-c2ccccc2)cc1 | -35 | Active | -60 | inactive | -11 bpm | -8
COc1ccc(-c2nnc(Cn3c(-c4ccc(N(C)C)cc4)nc(-c4ccccc4)c3-c3ccccc3)o2)cc1 | -10 | Active | -15 | Active | -10 bpm | -6
CN(C)c1ccc(-c2nc(-c3ccccc3)c(-c3ccccc3)n2CC(=O)NN)cc1 | -30 | Active | -30 | inactive | -27 bpm | -18
COc1ccc(/C=N/NC(=O)Cn2c(-c3ccc(N(C)C)cc3)nc(-c3ccccc3)c2-c2ccccc2)cc1 | -50 | Active | -45 | inactive | -14 bpm | -12
COc1ccc(/C=N/NC(=O)Cn2c(-c3ccc(O)c(OC)c3)nc(-c3ccccc3)c2-c2ccccc2)cc1 |  | Active | -10 | inactive |  | 
COc1cc(/C=N/NC(=O)Cn2c(-c3ccc(N(C)C)cc3)nc(-c3ccccc3)c2-c2ccccc2)ccc1O | -55 | Active | -80 | inactive | -20 bpm | -14
COc1ccc(-c2nc(-c3ccccc3)c(-c3ccccc3)n2CC(=O)NN)cc1 | -5 | inactive | -20 | inactive | -21 bpm | -16
COc1cc(-c2nnc(Cn3c(-c4ccc(N(C)C)cc4)nc(-c4ccccc4)c3-c3ccccc3)o2)ccc1O | -20 | Active | -50 | inactive | -14 bpm | -6
COc1ccc(-c2nnc(Cn3c(-c4ccccc4)nc(-c4ccccc4)c3-c3ccccc3)o2)cc1 | -10 | Active | -50 | inactive |  | 
NNC(=O)Cn1c(-c2ccccc2)nc(-c2ccccc2)c1-c1ccccc1 | -15 | inactive | -25 | inactive | -6 bpm | -6
NNC(=O)Cn1c(-c2ccccc2O)nc(-c2ccccc2)c1-c1ccccc1 | -17 | inactive | -22 | inactive | inactive | -21
COc1ccc(-c2nnc(Cn3c(-c4ccc(O)c(OC)c4)nc(-c4ccccc4)c3-c3ccccc3)o2)cc1 | -10 | Active | -10 | inactive |  | 
COc1ccc(/C=N/NC(=O)Cn2c(-c3ccc(OC)cc3)nc(-c3ccccc3)c2-c2ccccc2)cc1 | -5 | Active | -5 | inactive |  | 
